From article PMC10820468, “Novel Dihydrocoumarins Induced by Radiolysis as Potent Tyrosinase Inhibitors” (Molecules, 2024)

Tests used:
mushroom tyrosinase [1] = assay: Mushroom tyrosinase inhibition assay (L-DOPA substrate, DOPA chrome at 470 nm); assay type: biochemical; settings: 37 °C, 30 min, pH 6.8, triplicate
Experimental: The tyrosinase inhibition assay was achieved according to a previously described method. Both the enzyme (tyrosinase, EC 1.14.18.1) and substrate (L-3,4-dihydroxyphenylalanine) (L-DOPA) were purchased from Sigma-Aldrich. All test compounds were first dissolved in 5% dimethyl sulfoxide (DMSO) (80 μL), and the tyrosinase inhibitory activity was evaluated at various concentrations (5 to 200 μM). The reaction mixture consisted of 40 μL of tyrosinase solution (125 unit/mL in 67 mM phosphate buffer, pH 6.8), 40 μL of L-DOPA (25 mM in 67 mM phosphate buffer, pH 6.8), and 80 μL of the test sample. After incubation at 37 °C for 30 min, the amount of released DOPA chrome was measured at 470 nm using an ELISA reader (Infinite F200, Tecan Austria GmBH, Grodig, Austria). The tyrosinase inhibition (%) was calculated, and the half-maximal inhibitory concentration (IC50) was evaluated using linear regression analysis of the inhibitory effects under the assay conditions. […] All assays were carried out in triplicate. Kinetic parameters were determined using the Lineweaver-Burk plots methods at increasing concentration of substrates and inhibitor. The data was calculated using Sigma-plot (SPCC Inc., Chicago, IL, USA).

mushroom tyrosinase [2] = assay: Inhibition kinetics of tyrosinase-mediated L-DOPA oxidation (Lineweaver-Burk plots); assay type: biochemical
Text: Tyrosinase is a metalloenzyme that plays a primary role in the production of melanin from tyrosine when the skin is exposed to UV rays. Tyrosinase-related protein-1 (TRP-1) and dopachrome tautomerase (TRP-2) result in the formation of melanin as eumelanin (which appears black and brown) and pheomelanin (which appears yellow and red). Tyrosinase is present in epidermal melanocytes as well as in the pigment epithelia of the retina, iris, and ciliary body of the eye, and is one of the chief enzymes responsible for skin pigmentation in mammals. Melanin production can be inhibited by suppressing tyrosinase activity, thereby preventing the induction of melasma, freckles, and senile […]. […] Radiocatalytic hydrogenated molecules 1–4 obtained in the present study were evaluated for their inhibitory capacities toward mushroom tyrosinase. […]
The tyrosinase inhibition assay was achieved according to a previously described method. […] All test compounds were first dissolved in 5% dimethyl sulfoxide (DMSO) (80 μL), and the tyrosinase inhibitory activity was evaluated at various concentrations (5 to 200 μM). […] After incubation at 37 °C for 30 min, the amount of released DOPA chrome was measured at 470 nm using an ELISA reader (Infinite F200, Tecan Austria GmBH, Grodig, Austria). […] The data was calculated using Sigma-plot (SPCC Inc., Chicago, IL, USA).

Row | IC50 (mushroom tyrosinase [1]) [µM] | Inhibition Type (mushroom tyrosinase [2]) | Ki (mushroom tyrosinase [2]) [µM] | Compound
1 | 49 ± 1.3 |  |  | C[C@]1(CO)c2ccc(O)cc2OC(=O)[C@H]1CO (relative stereo) [Compound 2, Radiocoumarone B]
2 | 254.6 ± 2.1 |  |  | O=C1Oc2cc(O)ccc2[C@@](CO)(CCO)[C@@H]1CO (relative stereo) [Compound 3, Radiocoumarone C]

The next lines start with the molecule.

Row | Compound | IC50 (mushroom tyrosinase [1]) [µM] | Inhibition Type (mushroom tyrosinase [2]) | Ki (mushroom tyrosinase [2]) [µM]
3 | C[C@]1([C@@]2(C)c3ccc(O)cc3OC(=O)[C@H]2CO)c2ccc(O)cc2OC(=O)[C@H]1CO (relative stereo) [Compound 4, Radiocoumarone D] | 19.8 ± 0.5 | Non-competitive | 16
4 | C[C@@]1(CO)CC(=O)Oc2cc(O)ccc21 (stereo in doubt) [Compound 1, Radiocoumarone A] | 143 ± 1.5 |  | 
5 | Cc1cc(=O)oc2cc(O)ccc12 [4-MUF (5), 4-methylumbelliferone, reference compound] | > 500 |  | 
